Measured values as given in US12622899B2 (PureTech LYT 100, Inc., priority 2018, dated 2026).
“Also recorded” adds a separate entry of the source.

Assays:
[1] = tested on: older, healthy subjects; assay: Crossover study Part 2: safety and tolerability (TEAEs), fed and fasted; format: in vivo, human
Source text: Over-encapsulation was utilized to maintain study blind. […] Approximately 50 older healthy female and male adult subjects (1:1 ratio) were randomized into 1 of 2 cohorts:Cohort 1 or Cohort 2, N=˜25 subjects per cohort. Subjects in each cohort were randomized to treatment sequence as follows: • Sequence A: Pirfenidone to LYT-100 • Sequence B: LYT-100 to pirfenidone

[2] = Study LYT-100-2021-103 Part 3 (Example 2): PK of LYT-100 550 mg TID then 824 mg TID; format: in vivo, human
Method: Subjects provided blood samples prior to treatment, i.e., Day −1 or Day 1, for the determination of CYP1A2, CYP2C9, CYP2C19, and CYP2D6 genotype to support exploratory PK analyses. Subjects were required to provide consent for genotyping. Blood samples for PK were collected at specified times, as follows: • Day 1:0 (pre-AM dose) • Day 2: no sampling • Day 3:0 (pre-AM dose), and 1, 2, 3, 4, 6 (pre-mid-day dose), 7, 8, 9, 10, 12 (pre-PM dose), 13, 14, 15, 16, and 17 hours post-AM dose • Day 4:0 (pre-AM dose) • Day 5: no sampling • Day 6:0 (pre-AM dose), and 1, 2, 3, 4, 6 (pre-mid-day dose), 7, 8, 9, 10, 12 (pre-PM dose), 13, 14, 15, 16, and 17 hours post-AM dose • Day 7:0 (same time as Day 6 pre-AM dose, discharge)
Data was obtained for thirty subjects. Eight subjects had all values reported as below level of quantitation (BLQ; assumed to be 6 placebo subjects plus 2 active subjects with Day 1 pre-dose samples only). One additional subject was excluded due to a large number of BLQ samples on both Days 3-4 and 6-7. Accordingly, twenty-one subjects had sufficient PK data available to calculate PK parameters at the lower dose (550 mg TID on Days 3-4). Three subjects only had data for Days 3-4, and therefore had missing PK parameters for the higher dose (824 mg TID on Days 6-7).

[3] = tested on: patients with Idiopathic Pulmonary Fibrosis (IPF); assay: IPF trial Part A: safety and tolerability (TEAEs, AESI, dose modifications, discontinuations); format: in vivo
Method: The primary objective was to determine the dose(s) to carry into Phase 3. […] Patients were randomized to one of the four treatments in a 1:1:1:1 ratio and stratified based on prior exposure to nintedanib (<6 months) versus nintedanib-naïve patients. Patients who completed the Double-blind Treatment Period (Part A) were offered participation in the Long-term Extension (Part B). […] For patients who participated in Part B, the follow-up was conducted at the end of Part B. A graphical illustration of an embodiment of the trial design is provided as FIG. 24B.
Safety endpoints included: Adverse events, concomitant medications, clinical laboratory findings (chemistry, hematology, urinalysis), physical examinations, ECGs, and vital signs. These will be summarized descriptively, where appropriate.
Tolerability endpoints included: Frequency of dose modifications (reductions and interruptions), time to first dose modification, (reduction or interruption), duration of adverse events of special interest, time to treatment discontinuation due to an adverse event of special interest and patient reported assessment of IPF symptoms, side-effects, severity, change and satisfaction.
In this study, AEs are reported for all patients from the time of consent until the completion of the Follow-up visit. AEs reported prior to the first dose are denoted as pre-treatment. SAEs are reported for all patients (randomized or not) from the time of consent. AEs reported from the time of consent to confinement on Day 0 were recorded as pre-treatment AEs.
Treatment emergent adverse events (TEAEs) are defined as an AE that occurs following first dose of study medication and were evaluated from the first administration of study drug on Day 1 until the Follow-up visit. […]
This study evaluated in particular the tolerability based on prioritized gastrointestinal adverse events (GI AEs). […]

[4] = tested on: patients with Idiopathic Pulmonary Fibrosis (IPF); assay: IPF trial Part A: clinical laboratory parameters, liver; format: in vivo, human
[5] = tested on: rat BLM induced lung fibrosis model; conditions: in vivo, 400 mg/kg
Method: (§1) For Groups 4, 5, 6, and 7, bleomycin and vehicle dosing were conducted as indicated in Table 28 (0.45 mg/kg, at 1696 IU/mg of Bleomycin or saline on Day 1, 2, 3, 6 and 7).

[6] = tested on: rat BLM induced lung fibrosis model; assay: Rat bleomycin induced lung fibrosis model, Phase II (efficacy); conditions: bleomycin rats, LYT-100 400 mg/kg QD / nintedanib 60 mg/kg BID
Method: as §1

[7] = tested on: healthy older adults; assay: Study LYT-100-2021-103 Part 3 (Example 2): safety and tolerability vs placebo; conditions: for Abdominal Pain/Discomfort/Distension, adverse events / Diarrhea, adverse events / Dizziness, adverse events / Dyspepsia, adverse events / GI Disorders, adverse events / Headache, adverse events / Nausea, adverse events / Nervous System Disorders, adverse events / Vomiting, adverse events: fed, N=13
Method: Only subjects who met all the applicable inclusion and none of the applicable exclusion criteria were randomized.
Safety and tolerability were assessed by monitoring AEs, physical examination, vital signs, 12-lead ECGs, clinical laboratory values (hematology panel, multiphasic chemistry panel and urinalysis), and review of concomitant treatments/medication use.

[8] = Part 3 safety population, LYT-100 550 mg TID Days 1-3 then 824 mg TID Days 4-6, N=24

[2H]C([2H])([2H])c1ccc(=O)n(-c2ccccc2)c1 [LYT-100, 5-(methyl-d3)-1-phenylpyridin-2-(1H)-one]
deaths or serious AEs ([1]; Part 2): No deaths or serious AEs | TEAEs leading to study discontinuation, subjects ([1]; in vivo): one | Cmax, PK Parent ([2]; Healthy Older Part 3, LYT-100 824 mg TID, fed, N=13, mean (SD)): 13.7 (5.1) mcg/mL | AUC, % higher compared to historic pirfenidone PK values ([2]; LYT-100 824 mg TID): approximately 25% | exposure equivalent, % of 801 TID pirfenidone ([2]; LYT-100 825 mg TID): 120-150% | Cmax, % higher than with pirfenidone ([2]; Part 3, LYT-100 824 mg TID): 17% | Discontinued, Primary Reason: Death ([3]; 550 mg TID (N = 65)): 0 n (%) | Discontinued, Primary Reason: Death ([3]; 825 mg TID (N = 64)): 0 n (%) | liver enzyme elevations, drug-induced liver injury ([4]; IPF Part A): no instances of drug-induced liver injury or Hy's Law | Alanine Aminotransferase (U/L) at Worst Post-Baseline, 3-5 ULN ([4]; TID Pooled (N = 129), N1 120): 2 (1.7) n (%) | Alanine Aminotransferase (U/L) at Worst Post-Baseline, 5-8 ULN ([4]; TID Pooled (N = 129), N1 120): 1 n (%) | Alanine Aminotransferase (U/L) at Worst Post-Baseline, >8 ULN ([4]; TID Pooled (N = 129), N1 120): 2 n (%) | Alanine Aminotransferase (U/L) at Worst Post-Baseline, Total (>3 ULN) ([4]; TID Pooled (N = 129), N1 120): 5 (4.2) n (%) | Alanine Aminotransferase or Aspartate Aminotransferase (U/L) at Worst Post-Baseline, 3-5 ULN ([4]; TID Pooled (N = 129), N1 120): 2 (1.7) n (%) | Alanine Aminotransferase or Aspartate Aminotransferase (U/L) at Worst Post-Baseline, 5-8 ULN ([4]; TID Pooled (N = 129), N1 120): 1 n (%) | Alanine Aminotransferase or Aspartate Aminotransferase (U/L) at Worst Post-Baseline, >8 ULN ([4]; TID Pooled (N = 129), N1 120): 2 n (%) | Alanine Aminotransferase or Aspartate Aminotransferase (U/L) at Worst Post-Baseline, Total (>3 ULN) ([4]; TID Pooled (N = 129), N1 120): 5 (4.2) n (%) | Aspartate Aminotransferase (U/L) at Worst Post-Baseline, 3-5 ULN ([4]; TID Pooled (N = 129), N1 120): 2 (1.7) n (%) | Aspartate Aminotransferase (U/L) at Worst Post-Baseline, 5-8 ULN ([4]; TID Pooled (N = 129), N1 120): 0 n (%) | Aspartate Aminotransferase (U/L) at Worst Post-Baseline, >8 ULN ([4]; TID Pooled (N = 129), N1 120): 2 n (%) | Aspartate Aminotransferase (U/L) at Worst Post-Baseline, Total (>3 ULN) ([4]; TID Pooled (N = 129), N1 120): 4 (3.3) n (%) | tolerability [5]: well tolerated | hydroxyproline content (μg per mg of wet lung) vs bleomycin/vehicle ([6]; Day 8-27): reduced the hydroxyproline content; also recorded: reduced lung hydroxyproline content | lung fibrosis scores (histopathology) vs bleomycin/vehicle ([6]; Day 8-27): did not affect the fibrosis scores | lung sections with fibrosis Score 1 ([6]; Day 8-27): 33% | lung sections with fibrosis Score 2 ([6]; Day 8-27): 36% | mean lung weight vs bleomycin/vehicle ([6]; Day 8-27): did not affect mean lung weight | median lung fibrosis scores vs bleomycin/vehicle ([6]; Day 8-27): reduced median fibrosis scores | total left lung hydroxyproline (μg per left lung) vs bleomycin/vehicle ([6]; Day 8-27): did not affect total hydroxyproline levels | body weight gain ([6]; oral gavage Day 8-27): resumed and at a rate similar to Group 4; also recorded: did not negatively affect body weight developments | deaths or SAEs ([7]; Part 3): No deaths or SAEs | Abdominal Pain/Discomfort/Distension, adverse events ([7]; Part 3, LYT-100 550 mg TID): 0 n (%) | Diarrhea, adverse events ([7]; Part 3, LYT-100 550 mg TID): 1 (4.2) n (%) | Dizziness, adverse events ([7]; Part 3, LYT-100 550 mg TID): 1 (4.2) n (%) | Dyspepsia, adverse events ([7]; Part 3, LYT-100 550 mg TID): 1 (4.2) n (%) | GI Disorders, adverse events ([7]; Part 3, LYT-100 550 mg TID): 2 (8.3) n (%) | Headache, adverse events ([7]; Part 3, LYT-100 550 mg TID): 3 (12.5) n (%) | Nausea, adverse events ([7]; Part 3, LYT-100 550 mg TID): 0 n (%) | Nervous System Disorders, adverse events ([7]; Part 3, LYT-100 550 mg TID): 3 (12.5) n (%) | Vomiting, adverse events ([7]; Part 3, LYT-100 550 mg TID): 0 n (%) | tolerability ([7]; Part 3, LYT-100 824 mg TID, 3 treatment days): well tolerated | Abdominal Pain/Discomfort/Distension, adverse events ([7]; Part 3, LYT-100 824 mg TID): 0 n (%) | Diarrhea, adverse events ([7]; Part 3, LYT-100 824 mg TID): 0 n (%) | Dizziness, adverse events ([7]; Part 3, LYT-100 824 mg TID): 0 n (%) | Dyspepsia, adverse events ([7]; Part 3, LYT-100 824 mg TID): 0 n (%) | GI Disorders, adverse events ([7]; Part 3, LYT-100 824 mg TID): 0 n (%) | Headache, adverse events ([7]; Part 3, LYT-100 824 mg TID): 0 n (%) | Nausea, adverse events ([7]; Part 3, LYT-100 824 mg TID): 0 n (%) | Nervous System Disorders, adverse events ([7]; Part 3, LYT-100 824 mg TID): 0 n (%) | Vomiting, adverse events ([7]; Part 3, LYT-100 824 mg TID): 0 n (%) | subjects discontinued due to a TEAE (all Covid-19) ([7]; Part 3, LYT-100 group N=24): 3 (12.5%) n (%) | subjects with at least one TEAE ([7]; Part 3, LYT-100 group N=24): 8 (33.3%) n (%) | subjects with mild TEAEs ([7]; Part 3, LYT-100 group N=24): 7 (29.2%) n (%) | COVID-19 TEAE [7, 8]: 4 (16.7) n (%) | Headache TEAE [7, 8]: 3 (12.5) n (%)
